Experiments:
[1] = target: T1, FAAH (Mus musculus, UniProt O08914); assay: In vivo FAAH inhibition after oral dosing, remaining activity in brain homogenate (BRh, central nervous tissue); set-up: species or system NMRI mice; settings: brain homogenate
T1 construct: A fragment of liver, left lung lobe and brain without cerebellum were removed; from tissue; host or cells: male NMRI mice; brain (without cerebellum) and liver homogenates
T1 sequence (O08914 1-579): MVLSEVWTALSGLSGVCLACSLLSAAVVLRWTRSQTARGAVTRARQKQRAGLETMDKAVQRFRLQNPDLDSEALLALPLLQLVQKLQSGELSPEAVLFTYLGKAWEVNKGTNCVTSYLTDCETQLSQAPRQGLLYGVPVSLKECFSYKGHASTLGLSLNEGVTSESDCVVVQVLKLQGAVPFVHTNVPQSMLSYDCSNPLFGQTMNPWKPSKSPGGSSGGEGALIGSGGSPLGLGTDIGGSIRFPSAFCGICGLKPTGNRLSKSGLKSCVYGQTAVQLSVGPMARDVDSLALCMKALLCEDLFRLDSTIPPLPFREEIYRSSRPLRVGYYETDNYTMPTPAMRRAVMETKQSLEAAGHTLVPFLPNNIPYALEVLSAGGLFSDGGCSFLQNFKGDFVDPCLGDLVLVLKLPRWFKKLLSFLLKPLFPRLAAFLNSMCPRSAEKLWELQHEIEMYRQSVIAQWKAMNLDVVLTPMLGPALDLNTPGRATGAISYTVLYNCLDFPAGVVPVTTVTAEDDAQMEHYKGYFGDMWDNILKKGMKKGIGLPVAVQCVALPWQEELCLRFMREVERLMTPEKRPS
Outline: (§1)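 Remaining FAAH activity is given as % of vehicle-treated controls after blank subtraction, measured by radiolabelled AEA hydrolysis (2 μM AEA, 5 nM 3H-AEA, 37 °C) in brain (10 min) or liver (7 min) homogenates. These came from fasted male NMRI mice dosed orally at 30 or 3 mg/kg.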

[2] = target: T2, FAAH (Rattus norvegicus, UniProt P97612); assay: In vitro FAAH activity in rat brain membranes, 3H-AEA substrate, % of control; type: biochemical, Wistar rats; settings: low value = strong inhibitor; for In Vitro FAAH activity, 100 nM: 100 nM test compound; for In Vitro FAAH activity, 10 uM: 10 uM test compound
T2 construct: Frozen brains (without cerebellum) from Wistar rats were used; from tissue; host or cells: Wistar rat brain (without cerebellum), washed membrane pellets
T2 sequence (P97612 1-579): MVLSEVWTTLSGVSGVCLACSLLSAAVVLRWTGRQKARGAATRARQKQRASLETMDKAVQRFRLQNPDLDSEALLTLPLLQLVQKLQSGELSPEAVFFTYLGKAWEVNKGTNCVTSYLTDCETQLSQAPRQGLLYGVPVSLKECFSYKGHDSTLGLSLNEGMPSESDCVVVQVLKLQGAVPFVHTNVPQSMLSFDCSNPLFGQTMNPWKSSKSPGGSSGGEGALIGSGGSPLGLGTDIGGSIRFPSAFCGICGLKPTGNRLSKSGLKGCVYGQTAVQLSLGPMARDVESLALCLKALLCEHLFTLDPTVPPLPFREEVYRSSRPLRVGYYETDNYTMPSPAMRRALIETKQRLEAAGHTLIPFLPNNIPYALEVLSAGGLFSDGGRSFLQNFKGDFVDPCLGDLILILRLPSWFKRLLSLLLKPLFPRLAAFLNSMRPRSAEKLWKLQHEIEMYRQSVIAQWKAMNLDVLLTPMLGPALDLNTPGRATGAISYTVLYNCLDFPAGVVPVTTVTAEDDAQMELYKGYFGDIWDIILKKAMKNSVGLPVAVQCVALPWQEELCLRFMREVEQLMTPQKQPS
Outline: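 FAAH activity measured as 3H-ethanolamine released from 2 μM [3H]AEA over 10 min by rat brain membrane preparation, after 15 min 37 °C preincubation with test compound at 10 or 0.1 μM. Charcoal-separated supernatant scintillation-counted; values expressed as % of control minus no-protein blank.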

[3] = target: T1, FAAH; assay: In vivo FAAH inhibition after oral dosing, remaining activity in liver homogenate (LVh, peripheral tissue); set-up: species or system NMRI mice; settings: liver homogenate
Outline: as §1

Row | SMILES | In Vivo BRh 30 mg/kg 1 h, remaining FAAH activity [1] | In Vitro FAAH activity, 100 nM [2] | In Vitro FAAH activity, 10 uM [2] | In Vivo LVh 30 mg/kg 1 h, remaining FAAH activity [3] | In Vivo BRh 3 mg/kg 8 h, remaining FAAH activity [1] | In Vivo LVh 3 mg/kg 8 h, remaining FAAH activity [3]
1 | CN(C(=O)n1nnc2cc(Cl)ccc21)c1ccccc1 [Compound 33, 5-chloro-N-methyl-N-phenyl-1H-benzo[d][1,2,3]triazole-1-carboxamide] | 82.3 % of control | 6.2 % of control | 0 % of control | 76.7 % of control |  | 
2 | CN(C(=O)n1nnc2ccccc21)c1ccccc1 [Compound 34, N-methyl-N-phenyl-1H-benzo[d][1,2,3]triazole-1-carboxamide] | 33.6 % of control | 0.6 % of control | 0 % of control | 34.3 % of control |  | 
3 | CN(C(=O)n1cnc(-c2cccc(O)c2)c1)c1ccccc1 [Compound 40, 4-(3-hydroxyphenyl)-N-methyl-N-phenyl-1H-imidazole-1-carboxamide] | 81.5 % of control | 88.8 % of control | 0.1 % of control | 4.5 % of control | 102.8 % of control | 25.6 % of control
4 | O=C(N1CCN(c2ccccc2)CC1)n1nnc2ccccc21 [Compound 41, (1H-benzo[d][1,2,3]triazol-1-yl)(4-phenylpiperazin-1-yl)methanone] | 87.6 % of control | 0 % of control | 0 % of control | 30 % of control |  | 
5 | O=C(N1CCC(Cc2ccccc2)CC1)n1nnc2ccccc21 [Compound 42, (1H-benzo[d][1,2,3]triazol-1-yl)(4-benzylpiperidin-1-yl)methanone] | 8.4 % of control | 0 % of control | 0 % of control | 6.4 % of control |  | 
6 | O=C(N1CCN(Cc2ccc3c(c2)OCO3)CC1)n1nnc2ccccc21.O=C(O)C(=O)O [Compound 48, (1H-benzo[d][1,2,3]triazol-1-yl)(4-(benzo[d][1,3]dioxol-5-ylmethyl)piperazin-1-yl)methanone oxalate] | 21.8 % of control | 0.1 % of control |  | 20.1 % of control |  | 
7 | O=C(N1CCN(c2ccccn2)CC1)n1nnc2ccccc21 [Compound 49, (1H-benzo[d][1,2,3]triazol-1-yl)(4-(pyridin-2-yl)piperazin-1-yl)methanone] | 16.9 % of control | 0.1 % of control |  | 14.9 % of control |  | 
8 | O=C(N1CCc2ccccc2C1)n1nnc2ccccc21 [Compound 50, (1H-benzo[d][1,2,3]triazol-1-yl)(3,4-dihydroisoquinolin-2(1H)-yl)methanone] | 32.6 % of control | 0 % of control |  | 7.8 % of control |  | 
9 | O=C(N1CCCc2ccccc21)n1cnc(-c2cccc(O)c2)c1 [Compound 51, (3,4-dihydroquinolin-1(2H)-yl)(4-(3-hydroxyphenyl)-1H-imidazol-1-yl)methanone] |  | 100.8 % of control |  |  | 130.4 % of control | 132.3 % of control
10 | CN(Cc1ccccc1)C(=O)n1nnc2ccccc21 [Compound 53, N-benzyl-N-methyl-1H-benzo[d][1,2,3]triazole-1-carboxamide] | 1.4 % of control | 0 % of control |  | 6.3 % of control |  | 
11 | O=C(N1CCC2(CC1)OCCO2)n1nnc2ccccc21 [Compound 55, 1H-benzo[d][1,2,3]triazol-1-yl(1,4-dioxa-8-azaspiro[4.5]dec-8-yl)methanone] | 2.2 % of control | 0.2 % of control |  | 2.5 % of control | 42.6 % of control | 37.8 % of control
12 | CN(C(=O)n1nnc2ccccc21)C1CCCCC1 [Compound 58, N-cyclohexyl-N-methyl-1H-benzo[d][1,2,3]triazole-1-carboxamide] | 0.3 % of control | 1 % of control |  | 0.9 % of control | 0.5 % of control | 0.3 % of control
13 | O=C(NCc1ccccc1)n1nnc2ccccc21 [Compound 61, N-benzyl-1H-benzo[d][1,2,3]triazole-1-carboxamide] | 87.5 % of control | 2.2 % of control |  | 83.9 % of control |  | 
14 | CN(C(=O)n1nnc2ccccc21)c1ccc(Cl)cc1 [Compound 63, N-(4-chlorophenyl)-N-methyl-1H-benzo[d][1,2,3]triazole-1-carboxamide] | 57 % of control | 12.6 % of control |  | 49.7 % of control |  | 
15 | CN(C(=O)n1nnc2ccccc21)c1ccc(F)cc1F [Compound 70, N-(2,4-difluorophenyl)-N-methyl-1H-benzo[d][1,2,3]triazole-1-carboxamide] | 52 % of control | 1.9 % of control |  | 42.5 % of control |  | 
16 | CC1(C)COCN1C(=O)n1nnc2ccccc21 [Compound 71, (1H-benzo[d][1,2,3]triazol-1-yl)(4,4-dimethyloxazolidin-3-yl)methanone] | 0.3 % of control | 2.3 % of control | 0.1 % of control | 2.2 % of control | 1.8 % of control | 2.5 % of control
17 | CCCCN(C)C(=O)n1nnc2ccccc21 [Compound 75, N-butyl-N-methyl-1H-benzo[d][1,2,3]triazole-1-carboxamide] | 0.4 % of control | 0 % of control |  | 2.7 % of control |  | 
18 | O=C(N1CCC(Cc2ccccc2)CC1)n1cnc(-c2ccc(F)cc2F)n1 [Compound 79, (4-benzylpiperidin-1-yl)(3-(2,4-difluorophenyl)-1H-1,2,4-triazol-1-yl)methanone] | 10.3 % of control | 0.8 % of control |  | 9.8 % of control | 70 % of control | 45.2 % of control
19 | O=C(NC1CCCCC1)n1nnc2ccccc21 [Compound 87, N-cyclohexyl-1H-benzo[d][1,2,3]triazole-1-carboxamide] |  | 0 % of control |  |  | 3.4 % of control | 4 % of control

Source: patent US9353082B2, “Pharmaceutical compounds” (BIAL—PORTELA & CA, S.A., priority 2008, dated 2016)
